Paper PMC10932281, “A Combination of β-Aescin and Newly Synthesized Alkylamidobetaines as Modern Components Eradicating the Biofilms of Multidrug-Resistant Clinical Strains of Candida glabrata” (International Journal of Molecular Sciences, 2024)
Values after ≈ are worked out from the molar mass of the structure shown.

What was measured:
Type in all cases: cell-based, Candida glabrata
[1] = test system: C. glabrata 2586 clinical strain; experiment: MIC90/MFC, EUCAST broth microdilution; details: Nakaseomyces glabratus
C. glabrata ATCC 90030 [2] = experiment: MIC90/MFC, EUCAST broth microdilution; details: Nakaseomyces glabratus, ATCC90030, ATCC 90030
[3] = test system: C. glabrata strains (ATCC 90030, 2586, 2853); experiment: Interaction of AABs with antifungal agents, statements for all tested strains together; details: all the tested strains
C. glabrata 2586 [4] = experiment: Interaction of AABs (3 µM) with antifungal agents, modified checkerboard
C. glabrata 2853 [5] = experiment: FICI checkerboard, β-aescin with antifungal drugs; details: combination with β-aescin
C. glabrata 2586 [6] = experiment: FICI checkerboard, β-aescin with antifungal drugs; details: for FICI: combination with β-aescin
C. glabrata ATCC 90030 [7] = experiment: Interaction of AABs (3 µM) with antifungal agents, modified checkerboard
C. glabrata ATCC 90030 [8] = experiment: FICI checkerboard, β-aescin with antifungal drugs; details: combination with β-aescin
[9] = test system: C. glabrata strains (ATCC 90030, 2586, 2853); experiment: MIC, statements for all tested strains together; details: Nakaseomyces glabratus, ATCC90030
[10] = test system: C. glabrata 2853 clinical strain; experiment: MIC90/MFC, EUCAST broth microdilution; details: Nakaseomyces glabratus
C. glabrata 2853 [11] = experiment: Interaction of AABs (3 µM) with antifungal agents, modified checkerboard
[12] = C9 at constant 3 µM, dilutions in µg/mL
[13] = C11 at constant 3 µM, dilutions in µg/mL
[14] = C13 at constant 3 µM, dilutions in µg/mL
[15] = C15 at constant 3 µM, dilutions in µg/mL

Structure (SMILES): C[C@@H]1[C@H](O)[C@@H](C)/C=C/C=C/C=C/C=C/C=C/C=C/C=C/[C@H](O[C@@H]2O[C@H](C)[C@@H](O)[C@H](N)[C@@H]2O)C[C@@H]2O[C@](O)(C[C@@H](O)C[C@@H](O)[C@H](O)CC[C@@H](O)C[C@@H](O)CC(=O)O[C@H]1C)C[C@H](O)[C@H]2C(=O)O [Amphotericin B]
- MFC ([1]; read-out: MFC): 1 µg/mL (≈ 1.08 µM)
- MIC90 ([1]; read-out: MIC90): 0.25 µg/mL (≈ 0.271 µM)
- MFC (C. glabrata ATCC 90030 [2]; read-out: MFC): 0.5 µg/mL (≈ 0.541 µM)
- MIC90 (C. glabrata ATCC 90030 [2]; read-out: MIC90): 0.25 µg/mL (≈ 0.271 µM)
- Fold increase of activity with C11 ([3]; C11 3 µM): 2 fold
- Fold increase of activity with C13 ([3]; C13 3 µM): 2 fold
- Fold increase of activity with C15 ([3]; C15 3 µM): 4 fold
- Multiplicity factor (MF) with C9 (C. glabrata 2586 [4]; C9 3 µM): 2
- MIC90 of antimycotic combined with C9 (C. glabrata 2586 [4]; [12]): 0.12
- Multiplicity factor (MF) with C11 (C. glabrata 2586 [4]; C11 3 µM): 2
- MIC90 of antimycotic combined with C11 (C. glabrata 2586 [4]; [13]): 0.12
- Multiplicity factor (MF) with C13 (C. glabrata 2586 [4]; C13 3 µM): 2
- MIC90 of antimycotic combined with C13 (C. glabrata 2586 [4]; [14]): 0.12
- Multiplicity factor (MF) with C15 (C. glabrata 2586 [4]; C15 3 µM): 4
- MIC90 of antimycotic combined with C15 (C. glabrata 2586 [4]; [15]): 0.06
- FICI (C. glabrata 2853 [5]): 2.5
- Type of interaction with β-AE (by FICI) (C. glabrata 2586 [6]): additive
- FICI (C. glabrata 2586 [6]): 1
- FICI (C. glabrata 2586 [6]; listed as amphotericin B): 1.0
- Multiplicity factor (MF) with C9 (C. glabrata ATCC 90030 [7]; C9 3 µM, |MF| = MIC90 alone/MIC90 with AAB): 1
- MIC90 of antimycotic combined with C9 (C. glabrata ATCC 90030 [7]; [12]): 0.25
- Multiplicity factor (MF) with C11 (C. glabrata ATCC 90030 [7]; C11 3 µM): 2
- MIC90 of antimycotic combined with C11 (C. glabrata ATCC 90030 [7]; [13]): 0.12
- Multiplicity factor (MF) with C13 (C. glabrata ATCC 90030 [7]; C13 3 µM): 2
- MIC90 of antimycotic combined with C13 (C. glabrata ATCC 90030 [7]; [14]): 0.12
- Multiplicity factor (MF) with C15 (C. glabrata ATCC 90030 [7]; C15 3 µM): 4
- MIC90 of antimycotic combined with C15 (C. glabrata ATCC 90030 [7]; [15]): 0.06
- FICI (C. glabrata ATCC 90030 [8]): 1.5
- MIC [9]: 0.25 µg/mL (≈ 0.271 µM)
- MFC ([10]; read-out: MFC): 0.5 µg/mL (≈ 0.541 µM)
- MIC90 ([10]; read-out: MIC90): 0.25 µg/mL (≈ 0.271 µM)
- Multiplicity factor (MF) with C9 (C. glabrata 2853 [11]; C9 3 µM): 1
- MIC90 of antimycotic combined with C9 (C. glabrata 2853 [11]; [12]): 0.25
- Multiplicity factor (MF) with C11 (C. glabrata 2853 [11]; C11 3 µM): 2
- MIC90 of antimycotic combined with C11 (C. glabrata 2853 [11]; [13]): 0.12
- Multiplicity factor (MF) with C13 (C. glabrata 2853 [11]; C13 3 µM): 2
- MIC90 of antimycotic combined with C13 (C. glabrata 2853 [11]; [14]): 0.12
- Multiplicity factor (MF) with C15 (C. glabrata 2853 [11]; C15 3 µM): 4
- MIC90 of antimycotic combined with C15 (C. glabrata 2853 [11]; [15]): 0.06
